Measurements as given in patent US12485132B2, “GPX4 inhibitors and senolytic compounds and uses thereof” (Rubedo Life Sciences, Inc., priority 2023, dated 2025).

Assays:
senescent A549 cells = assay: Senescence assay: viability of senescent A549 cells; format: cell-based; details: Homo sapiens, 24-72 hours incubation, viability by CellTiter-Glo or XTT, read-out: Absolute IC50 average A549_SEN IC50
Experimental: (§1) Cells were maintained in DMEM media (high glucose, 4 mM L-glutamine, no sodium pyruvate) supplemented with 10% fetal bovine serum in a humidified incubator at 37° C. with 5% carbon dioxide. Senescence was induced via treatment with a sublethal concentration of chemotherapy (bleomycin, gemcitabine, doxorubicin, 5-fluorouridine), followed by a rest period without chemotherapy similarly to what is reported by others in the field (e.g., Aoshiba et al., 2003 Eur Respir J 22:436-443). Senescence was qualified by low EdU (5-ethynyl-2′-deoxyuridine) incorporation and high SA-β-Gal (senescence-associated beta-galactosidase) staining compared to proliferating untreated cells. Senescent cells were plated into 96-well plates at a density of 5-15,000 cells/well. The next day, compounds were added in duplicate across ten different concentrations spanning roughly four Log10 units. Cells were incubated with the compounds for 24-72 hours, at which point viability was quantified using CellTiter-Glo (Promega) or XTT (R&D Systems). The viability for treated cells was determined relative to untreated control cells. The log of the compound concentration vs. normalized mean viability was fit to a four parameters Hill function with variable slope. The bottom was constrained to be greater than zero. The X mean value for Y=50 was interpolated to determine the absolute IC50. The results in Table 2 indicate that many of the compounds are active in cells and can induce a dose dependent decrease in the viability of senescent HEPG2 and A549 cells.

senescent HEPG2 cells = assay: Senescence assay: viability of senescent HEPG2 cells; format: cell-based; details: Homo sapiens, 24-72 hours incubation, viability by CellTiter-Glo or XTT, read-out: Absolute IC50 average HEPG2_SEN IC50
Experimental: as §1

| SMILES | IC50 (senescent A549 cells) [nM] | IC50 (senescent HEPG2 cells) [nM] |
| --- | --- | --- |
| C#CC(F)(F)[C@]1(O)CC[C@H]2[C@@H]3CCC4=C/C(=N/NC(N)=O)CCC4=C3[C@H](c3ccc(C4CC4)cc3)C[C@@]21C [Compound 41, (E)-2-((8S,11S,13S,14S,17S)-11-(4-cyclopropylphenyl)-17-(1,1-difluoroprop-2-yn-1-yl)-17-hydroxy-13-methyl-1,2,6,7,8,11,12,13,14,15,16,17-dodecahydro-3H-cyclopenta[a]phenanthren-3-ylidene)hydrazine-1-carboxamide] |  | 0.1 to 10 |
| C#CC(F)(F)[C@]1(O)CC[C@H]2[C@@H]3CCC4=C(Cl)C(=O)CCC4=C3[C@H](c3ccc(C4CC4)cc3)C[C@@]21C [Compound 52, (8S,11S,13S,14S,17S)-4-chloro-11-(4-cyclopropylphenyl)-17-(1,1-difluoroprop-2-yn-1-yl)-17-hydroxy-13-methyl-1,2,6,7,8,11,12,13,14,15,16,17-dodecahydro-3H-cyclopenta[a]phenanthren-3-one] | 10 to 100 |  |
| C#CC(F)(F)[C@]1(O)CC[C@H]2[C@@H]3CCC4=CC(=O)CCC4=C3[C@@H](c3ccc(OCC(F)(F)F)cc3)C[C@@]21C [Compound 53, (8S,11R,13S,14S,17S)-17-(1,1-difluoroprop-2-yn-1-yl)-17-hydroxy-13-methyl-11-(4-(2,2,2-trifluoroethoxy)phenyl)-1,2,6,7,8,11,12,13,14,15,16,17-dodecahydro-3H-cyclopenta[a]phenanthren-3-one] | 10 to 100 |  |
| C#CC(F)(F)[C@]1(O)CC[C@H]2[C@@H]3CCC4=C/C(=N/NC(=O)NC5CC5)CCC4=C3[C@H](c3ccc(OCC(F)(F)F)cc3)C[C@@]21C [Compound 55, (E)-N-cyclopropyl-2-((8S,11S,13S,14S,17S)-17-(1,1-difluoroprop-2-yn-1-yl)-17-hydroxy-13-methyl-11-(4-(2,2,2-trifluoroethoxy)phenyl)-1,2,6,7,8,11,12,13,14,15,16,17-dodecahydro-3H-cyclopenta[a]phenanthren-3-ylidene)hydrazine-1-carboxamide] | 10 to 100 |  |
| C#CC(F)(F)[C@]1(O)CC[C@H]2[C@@H]3CCC4=CC(=O)CCC4=C3[C@H](c3ccc(OCC4(C)CCC4)cc3)C[C@@]21C [Compound 60, (8S,11S,13S,14S,17S)-17-(1,1-difluoroprop-2-yn-1-yl)-17-hydroxy-13-methyl-11-(4-((1-methylcyclobutyl)methoxy)phenyl)-1,2,6,7,8,11,12,13,14,15,16,17-dodecahydro-3H-cyclopenta[a]phenanthren-3-one] | 0.1 to 10 |  |
| C#CC(F)(F)[C@]1(O)CC[C@H]2[C@@H]3CCC4=CC(=O)CCC4=C3[C@H](c3ccc(OS(=O)(=O)C(F)(F)F)cc3)C[C@@]21C [Compound 63, 4-((8S,11S,13S,14S,17S)-17-(1,1-difluoroprop-2-yn-1-yl)-17-hydroxy-13-methyl-3-oxo-2,3,6,7,8,11,12,13,14,15,16,17-dodecahydro-1H-cyclopenta[a]phenanthren-11-yl)phenyl trifluoromethanesulfonate] | 10 to 100 |  |
| C#CC(F)(F)[C@]1(O)CC[C@H]2[C@@H]3CCC4=C/C(=N/OCCN)CCC4=C3[C@H](c3ccc(C4CC4)cc3)C[C@@]21C [Compound 68, 2-((((8S,11S,13S,14S,17S,E)-11-(4-cyclopropylphenyl)-17-(1,1-difluoroprop-2-yn-1-yl)-17-hydroxy-13-methyl-1,2,6,7,8,11,12,13,14,15,16,17-dodecahydro-3H-cyclopenta[a]phenanthren-3-ylidene)amino)oxy)ethan-1-aminium chloride] | 10 to 100 |  |
| C#CC(F)(F)[C@]1(O)CC[C@H]2[C@@H]3CCc4cc(OCCN5CCOCC5)ccc4C3[C@@H](c3ccc(S(=O)(=O)C4CC4)cc3)C[C@@]21C (stereo partly drawn) [Compound 77, (8S,11S,13S,14S,17S)-11-(4-(cyclopropylsulfonyl)phenyl)-17-(1,1-difluoroprop-2-yn-1-yl)-13-methyl-3-(2-morpholinoethoxy)-7,8,9,11,12,13,14,15,16,17-decahydro-6H-cyclopenta[a]phenanthren-17-ol] | ≥ 1000 |  |
| C#CC(F)(F)[C@]1(O)CC[C@H]2[C@@H]3CCC4=CC(=NOCCOCCOCCOCCNC(=O)CCCCC5SCC6NC(=O)NC65)CCC4=C3[C@@H](c3ccc(C4CC4)cc3)C[C@@]21C (stereo partly drawn) [compound 21] |  | 0.1 to 10 |

The next lines start with the values.

| IC50 (senescent A549 cells) [nM] | IC50 (senescent HEPG2 cells) [nM] | SMILES |
| --- | --- | --- |
| 10 to 100 |  | C#CC(F)(F)[C@]1(O)CC[C@H]2[C@@H]3CCC4=C/C(=N/OCCN5CCNCC5)CCC4=C3[C@@H](c3ccc(C4CC4)cc3)C[C@@]21C [Compound 7, (8S,11R,13S,14S,17S,E)-11-(4-cyclopropylphenyl)-17-(1,1-difluoroprop-2-yn-1-yl)-17-hydroxy-13-methyl-1,2,6,7,8,11,12,13,14,15,16,17-dodecahydro-3H-cyclopenta[a]phenanthren-3-one O-(2-(piperazin-1-yl)ethyl)oxime] |
|  | 0.1 to 10 | C#CC(F)(F)[C@]1(O)CC[C@H]2[C@@H]3CCC4=C/C(=N/NC(=O)OCC)CCC4=C3[C@H](c3ccc(C4CC4)cc3)C[C@@]21C [Compound 40, ethyl (E)-2-((8S,11S,13S,14S,17S)-11-(4-cyclopropylphenyl)-17-(1,1-difluoroprop-2-yn-1-yl)-17-hydroxy-13-methyl-1,2,6,7,8,11,12,13,14,15,16,17-dodecahydro-3H-cyclopenta[a]phenanthren-3-ylidene)hydrazine-1-carboxylate] |
|  | 0.1 to 10 | C#CC(F)(F)[C@]1(O)CC[C@H]2[C@@H]3CCC4=C/C(=N/NC(=O)NCC5CC5)CCC4=C3[C@H](c3ccc(C4CC4)cc3)C[C@@]21C [Compound 50, (E)-N-(cyclopropylmethyl)-2-((8S,11S,13S,14S,17S)-11-(4-cyclopropylphenyl)-17-(1,1-difluoroprop-2-yn-1-yl)-17-hydroxy-13-methyl-1,2,6,7,8,11,12,13,14,15,16,17-dodecahydro-3H-cyclopenta[a]phenanthren-3-ylidene)hydrazine-1-carboxamide] |
| 10 to 100 |  | C#CC(F)(F)[C@]1(O)CC[C@H]2[C@@H]3CCC4=CC(=O)CCC4=C3[C@H](c3ccc(OCc4ccc(S(=O)(=O)C(F)(F)F)cc4)cc3)C[C@@]21C [Compound 57, (8S,11S,13S,14S,17S)-17-(1,1-difluoroprop-2-yn-1-yl)-17-hydroxy-13-methyl-11-(4-((4-((trifluoromethyl)sulfonyl)benzyl)oxy)phenyl)-1,2,6,7,8,11,12,13,14,15,16,17-dodecahydro-3H-cyclopenta[a]phenanthren-3-one] |
| 10 to 100 |  | C#CC(F)(F)[C@]1(O)CC[C@H]2[C@@H]3CCC4=C(Cl)C(=O)CCC4=C3[C@H](c3ccc(OCC(F)(F)F)cc3)C[C@@]21C [Compound 59, (8S,11S,13S,14S,17S)-4-chloro-17-(1,1-difluoroprop-2-yn-1-yl)-17-hydroxy-13-methyl-11-(4-(2,2,2-trifluoroethoxy)phenyl)-1,2,6,7,8,11,12,13,14,15,16,17-dodecahydro-3H-cyclopenta[a]phenanthren-3-one] |
| 10 to 100 |  | C#CC(F)(F)[C@]1(O)CC[C@H]2[C@@H]3CCC4=C/C(=N/NC(=O)NCC5CC5)CCC4=C3[C@H](c3ccc(S(=O)(=O)C4CC4)cc3)C[C@@]21C [Compound 62, (E)-N-(cyclopropylmethyl)-2-((8S,11S,13S,14S,17S)-11-(4-(cyclopropylsulfonyl)phenyl)-17-(1,1-difluoroprop-2-yn-1-yl)-17-hydroxy-13-methyl-1,2,6,7,8,11,12,13,14,15,16,17-dodecahydro 3H-cyclopenta[a]phenanthren-3-ylidene)hydrazine-1-carboxamide] |
| 100 to 1000 |  | C#CC(F)(F)[C@]1(O)CC[C@H]2[C@@H]3CCC4=CC(=N[N+](C)(C)C)CCC4=C3[C@H](c3ccc(C4CC4)cc3)C[C@@]21C [Compound 66, 2-((8S,11S,13S,14S,17S)-11-(4-cyclopropylphenyl)-17-(1,1-difluoroprop-2-yn-1-yl)-17-hydroxy-13-methyl-1,2,6,7,8,11,12,13,14,15,16,17-dodecahydro-3H-cyclopenta[a]phenanthren-3-ylidene)-1,1,1-trimethylhydrazin-1-ium] |
| 10 to 100 |  | C#CC(F)(F)[C@]1(O)CC[C@H]2[C@@H]3CCC4=C/C(=N/NC(=O)[C@H]5C[C@H](O)C5)CCC4=C3[C@@H](c3ccc(OCC(F)(F)F)cc3)C[C@@]21C [Compound 71, trans-N′-((8S,11R,13S,14S,17S)-17-(1,1-difluoroprop-2-yn-1-yl)-17-hydroxy-13-methyl-11-(4-(2,2,2-trifluoroethoxy)phenyl)-1,2,6,7,8,11,12,13,14,15,16,17-dodecahydro-3H-cyclopenta[a]phenanthren-3-ylidene)-3-hydroxycyclobutane-1-carbohydrazide] |
| 10 to 100 |  | C#CC(F)(F)[C@]1(O)CC[C@H]2[C@@H]3CCC4=CC(=O)CCC4=C3[C@@H](c3ccc(OCC4(C)COC4)cc3)C[C@@]21C [Compound 72, (8S,11R,13S,14S,17S)-17-(1,1-difluoroprop-2-yn-1-yl)-17-hydroxy-13-methyl-11-(4-((3-methyloxetan-3-yl)methoxy)phenyl)-1,2,6,7,8,11,12,13,14,15,16,17-dodecahydro-3H-cyclopenta[a]phenanthren-3-one] |
